Measurements from patent US20100190778A1, “3,4-DIHYDROBENZO[1,2,3]THIADIAZINE-1,1-DIOXIDE DERIVATIVES, PROCESS FOR PREPARATION THEREOF, MEDICAMENTS CONTAINING SAID DERIVATIVES AND THEIR USE” (EGIS GYOGYSZERGYAR NYILVANOSAN MUKODO RESZVENTARSASAG, priority 2006, published 2010).

Assays:
male Sprague-Dawley rats = test: elevated maze test in the rat (anxiolytic effect); assay type: in vivo; conditions: per os, 60-min pretreatment, 5-min measurement, MED regarding time spent in the open arms and number of entries into the open arms
Protocol: Pharmacological activity of the compounds of the general Formula (I) has been evaluated in elevated maze test in the rat.
The tests were carried out according to the method of S. Fellow and coworkers (J. Neurosci. Methods. 1985, 14, 149-167). During the test, a wooden-floor cross elevated by 50 cm from the ground was used. The length and the width of the arms of the cross were 100 and 15 cm, respectively. Two opposite arms of the cross are fitted at the ends and both sides with black plexiglass wall of 40 cm height (closed arms). The central section of the cross measuring 15 by 15 cm is open. The other two opposite arms of the cross are not provided with walls (open arms).
The tests were carried out in male Sprague-Dawley rats weighing 200 to 220 g. After the 60-min pretreatment time (per os treatment), animals were placed in the center of the maze. During the 5-min measurement time, four variables were recorded: the time spent in the open arms; the time spent in the closed arms; the number of entries into the open arms; the number of entries into the closed arms.
Animals normally avoid the open and light parts of the maze, thereby spending little time therein only. The anxiolytic effect of the compounds of the general Formula (I) is indicated by the increase in the time spent (in seconds) in the open arms and/or by the increase in the number of the entries into the open compartments of the maze. The minimum effective dose (MED) was determined for each tested compounds regarding the time spent in the open arms and the number of entries into the open arms. During the test, the known anxiolytic compound I-methyl-5-phenyl-7-chloro-1,3-dihydro-2H-1,4-benzodiazepin-2-one (INN: diazepam) of the Formula (IV)
was used. Treatment of the animals was carried out orally with the doses 0.1, 0.3, 1.0, 3.0 for diazepam and 0.01, 0.1, 1.0 mg/kg for the compounds of the general Formula (I).

| melting point [°C] | SMILES | MED (minimum effective dose), anxiolytic effect in elevated maze test (male Sprague-Dawley rats) [mg/kg p.o.] |
| --- | --- | --- |
| 134 to 135 | CC1NN(C)S(=O)(=O)c2c1ccc(Cl)c2Cl (stereo not shown) [Example 16, 7,8-Dichloro-2,4-dimethyl-3,4-dihydrobenzo[1,2,3]thiadiazine-1,1-dioxide] | 0.01 |
| 155 to 156 | CC1NNS(=O)(=O)c2cc(Cl)ccc21 (stereo not shown) [Example 1, 7-chloro-4-methyl-3,4-dihydrobenzo[1,2,3]thiadiazine-1,1-dioxide] | 0.3 |
